Test results as given in patent US4738929A, “Purified culture of streptomyces galanosa” (Warner-Lambert Company, priority 1986, dated 1988).
≈ marks a conversion by molar mass, not a printed value.

Columns and labels:
Pseudomonas aeruginosa = assay: Microtiter dilution MIC, Pseudomonas aeruginosa; assay type: cell-based; details: Mueller-Hinton broth, 37° C., 16-24 hours, read-out: Minimal Inhibitory Concentration
Method: (§1) The compounds of the present invention and their pharmaceutically acceptable salts are useful as antimicrobial agents. The antimicrobial activity of the representative examples of compounds in accordance with the present invention against five species of gram-negative bacteria, seven species of gram-positive bacteria, four species of yeast, and two species of fungi were determined using the microtiter dilution technique. This method is described by T. B. Conrath, "Handbook of Microtiter Procedures," Dynatech Corp., Cambridge, Mass., USA (1972); and T. L. Gavan et al, "Microdilution Test Procedures," in Manual of Clinical Microbiology, E. H. Lennette, Ed., American Soc. for Microbiol., Washington, D.C., U.S.A. (1980).
(§2) Each agent is suspended in a nonaqueous solvent for several minutes to sterilize the compound or, if the compound is completely soluble in water, the aqueous solution is sterilized by passage through a 0.2-0.45 micrometer membrane filter.
(§3) Each well of a sterile 96-well microdilution tray is filled under aseptic conditions with 0.1 ml of Mueller-Hinton broth (for antibacterial tests), or yeast extract-peptone-dextrose or buffered supplemented yeast nitrogen base (for tests with yeasts or fungi).
(§4) […] of the test compound solution is added to each of the eight wells in the first row of the tray. A microdilutor apparatus is used to simultaneously mix the contents of these wells and to transfer aliquots to each succeeding row of cells to obtain a range of serially diluted solutions. The last row of wells is untreated and serves as a control.
(§5) Each well containing broth and test compound is inoculated with about ten microliters of inoculum of the test microorganism. One well in the last row of wells (which is free of test compound) is not inoculated and is used as a sterility control The trays are sealed and incubated at 37° C. for 16-24 hours (for bacteria) or at 28° C. for 36-48 hours (yeasts or fungi). During incubation, the inoculated medium is shaken at 100-140 rpm to increase contact between the microorganism cells and test compounds.
(§6) After the incubation period, each plate is evaluated by determining the lowest concentration of test compound required to inhibit the growth of the microorganism and recorded as a minimal inhibitory concentration (MIC).

Mucor paraciticus = assay: Microtiter dilution MIC, Mucor paraciticus; assay type: cell-based; details: yeasts or fungi, 28° C., 36-48 hours, read-out: Minimal Inhibitory Concentration
Method: as §1, §2, §3, §4, §5, §6

Micrococcus luteus = assay: Microtiter dilution MIC, Micrococcus luteus; assay type: cell-based; details: Mueller-Hinton broth, 37° C., 16-24 hours, read-out: Minimal Inhibitory Concentration
Method: as §1, §2, §3, §4, §5, §6

Saccharomyces cerevisiae = assay: Microtiter dilution MIC, Saccharomyces cerevisiae; assay type: cell-based; details: yeasts or fungi, 28° C., 36-48 hours, read-out: Minimal Inhibitory Concentration
Method: as §1, §2, §3, §4, §5, §6

Salmonella typhimurium = assay: Microtiter dilution MIC, Salmonella typhimurium; assay type: cell-based; details: Salmonella enterica, Mueller-Hinton broth, 37° C., 16-24 hours, read-out: Minimal Inhibitory Concentration
Method: as §1, §2, §3, §4, §5, §6

Bacillus cereus = assay: Microtiter dilution MIC, Bacillus cereus; assay type: cell-based; details: Mueller-Hinton broth, 37° C., 16-24 hours, read-out: Minimal Inhibitory Concentration
Method: as §1, §2, §3, §4, §5, §6

Rhizopus japonicus = assay: Microtiter dilution MIC, Rhizopus japonicus; assay type: cell-based; details: yeasts or fungi, 28° C., 36-48 hours, read-out: Minimal Inhibitory Concentration
Method: as §1, §2, §3, §4, §5, §6

Streptococcus faecalis = assay: Microtiter dilution MIC, Streptococcus faecalis; assay type: cell-based; details: Enterococcus faecalis; Mueller-Hinton broth, 37° C., 16-24 hours; read-out: Minimal Inhibitory Concentration
Method: as §1, §2, §3, §4, §5, §6

Staphylococcus aureus = assay: Microtiter dilution MIC, Staphylococcus aureus; assay type: cell-based; details: Mueller-Hinton broth, 37° C., 16-24 hours, read-out: Minimal Inhibitory Concentration
Method: as §1, §2, §3, §4, §5, §6

Rhodotorula aurantiaca = assay: Microtiter dilution MIC, Rhodotorula aurantiaca; assay type: cell-based; details: Buckleyzyma aurantiaca; yeasts or fungi, 28° C., 36-48 hours; read-out: Minimal Inhibitory Concentration
Method: as §1, §2, §3, §4, §5, §6

Branhamella catarrhalis = assay: Microtiter dilution MIC, Branhamella catarrhalis; assay type: cell-based; details: Moraxella catarrhalis; Mueller-Hinton broth, 37° C., 16-24 hours; read-out: Minimal Inhibitory Concentration
Method: as §1, §2, §3, §4, §5, §6

Bacillus megaterium = assay: Microtiter dilution MIC, Bacillus megaterium; assay type: cell-based; details: Priestia megaterium; Mueller-Hinton broth, 37° C., 16-24 hours; read-out: Minimal Inhibitory Concentration
Method: as §1, §2, §3, §4, §5, §6

[1] = system: Escherichia coli (PD-04863); assay: Microtiter dilution MIC, Escherichia coli (PD-04863); assay type: cell-based; details: Mueller-Hinton broth, 37° C., 16-24 hours, read-out: Minimal Inhibitory Concentration
Method: as §1, §2, §3, §4, §5, §6

[2] = system: Schizosaccharomyces pombe; assay: Microtiter dilution MIC, Schizosaccharomyces pombe; assay type: cell-based; details: yeasts or fungi, 28° C., 36-48 hours, read-out: Minimal Inhibitory Concentration
Method: as §1, §2, §3, §4, §5, §6

Streptococcus pneumoniae = assay: Microtiter dilution MIC, Streptococcus pneumoniae; assay type: cell-based; details: Mueller-Hinton broth, 37° C., 16-24 hours, read-out: Minimal Inhibitory Concentration
Method: as §1, §2, §3, §4, §5, §6

Streptococcus pyogenes = assay: Microtiter dilution MIC, Streptococcus pyogenes; assay type: cell-based; details: Mueller-Hinton broth, 37° C., 16-24 hours, read-out: Minimal Inhibitory Concentration
Method: as §1, §2, §3, §4, §5, §6

Torulopsis albida = assay: Microtiter dilution MIC, Torulopsis albida; assay type: cell-based; details: Naganishia albida; yeasts or fungi, 28° C., 36-48 hours; read-out: Minimal Inhibitory Concentration
Method: as §1, §2, §3, §4, §5, §6

Alcaligenes viscolactis = assay: Microtiter dilution MIC, Alcaligenes viscolactis; assay type: cell-based; details: Mueller-Hinton broth, 37° C., 16-24 hours, read-out: Minimal Inhibitory Concentration
Method: as §1, §2, §3, §4, §5, §6

P388 leukemia cell line = assay: In vivo antineoplastic activity against transplanted P388 leukemia in mice; details: Days 1-9
Method: The in vivo antineoplastic activity of representative compounds of the present invention against the transplanted P388 leukemia cell line in mice was determined in accordance with the protocol given in Geran et al, cited above. The mice were infected intraperitoneally on Day 0 and then administered the indicated doses of the test compounds on Days 1-9.

[3] = system: L1210 murine leukemia cell line; assay: Cytotoxic activity against L1210 murine leukemia in vitro; assay type: cell-based; details: Mus musculus, 50% inhibition of growth, duplicate tests
Method: The antineoplastic activities of representative compounds of the present invention against the L1210 murine leukemia cell line in vitro were determined using the methods detailed by R. I. Geran et al, "Protocols for Screening Chemical Agents and Natural Products Against Animal Tumors and Other Biological Systems," 3rd Edition, Cancer Chemotherapy Reports, Part 3, Vol. 3, pages 1-87 (1972) which is incorporated herein by reference.
The IC50 values are the concentration of compound required to produce 50% inhibition of growth of the cell line.

Compound: CN(C)CCNC(=O)c1ccc(O)c2nc3c(C=O)c(O)cc(O)c3nc12 [Example 14, N-[2-(dimethylamino)ethyl]-6-formyl-4,7,9-trihydroxy-1-phenazinecarboxamide]
- MIC (Pseudomonas aeruginosa): 1000 µg/mL (≈ 2700 µM)
- MIC (Mucor paraciticus): 333 µg/mL (≈ 899 µM)
- MIC (Micrococcus luteus): 111 µg/mL (≈ 300 µM)
- MIC (Saccharomyces cerevisiae): > 1000 µg/mL
- MIC (Salmonella typhimurium): 111 µg/mL (≈ 300 µM)
- MIC (Bacillus cereus): 37 µg/mL (≈ 99.9 µM)
- MIC (Rhizopus japonicus): 333 µg/mL (≈ 899 µM)
- MIC (Streptococcus faecalis): 111 µg/mL (≈ 300 µM)
- MIC (Staphylococcus aureus): 37 µg/mL (≈ 99.9 µM)
- MIC (Rhodotorula aurantiaca): 37 µg/mL (≈ 99.9 µM)
- MIC (Branhamella catarrhalis): 12.3 µg/mL (≈ 33.2 µM)
- MIC (Bacillus megaterium): 111 µg/mL (≈ 300 µM)
- MIC [1]: 111 µg/mL (≈ 300 µM)
- MIC [2]: 111 µg/mL (≈ 300 µM)
- MIC (Streptococcus pneumoniae): 111 µg/mL (≈ 300 µM)
- MIC (Streptococcus pyogenes): 111 µg/mL (≈ 300 µM)
- MIC (Torulopsis albida): 333 µg/mL (≈ 899 µM)
- MIC (Alcaligenes viscolactis): 12.3 µg/mL (≈ 33.2 µM)

Compound: Cc1c(O)c(C=O)c2nc3c(O)ccc(C(=O)NCCN(C)C)c3nc2c1O [Example 8, N-[2-(dimethylamino)ethyl]-6-formyl-4,7,9-trihydroxy-8-methyl-1-phenazinecarboxamide]
- MIC (Pseudomonas aeruginosa): > 1000 µg/mL
- MIC (Mucor paraciticus): > 1000 µg/mL
- MIC (Micrococcus luteus): 1000 µg/mL (≈ 2600 µM)
- MIC (Saccharomyces cerevisiae): > 1000 µg/mL
- % T/C (P388 leukemia cell line; 3.12 mg/kg/injection): 113%
- % T/C (P388 leukemia cell line; 6.25 mg/kg/injection): 129%
- % T/C (P388 leukemia cell line; 12.5 mg/kg/injection): 146%
- % T/C (P388 leukemia cell line; 25 mg/kg/injection): 205%
- MIC (Salmonella typhimurium): 111 µg/mL (≈ 289 µM)
- MIC (Bacillus cereus): 37 µg/mL (≈ 96.3 µM)
- MIC (Rhizopus japonicus): > 1000 µg/mL
- MIC (Streptococcus faecalis): > 1000 µg/mL
- MIC (Staphylococcus aureus): 1000 µg/mL (≈ 2600 µM)
- MIC (Rhodotorula aurantiaca): > 1000 µg/mL
- MIC (Branhamella catarrhalis): 4.1 µg/mL (≈ 10.7 µM)
- MIC (Bacillus megaterium): 1000 µg/mL (≈ 2600 µM)
- IC50 [3]: 0.24 µg/mL (≈ 0.624 µM)
- MIC [1]: 1000 µg/mL (≈ 2600 µM)
- MIC [2]: > 1000 µg/mL
- MIC (Streptococcus pneumoniae): 1000 µg/mL (≈ 2600 µM)
- MIC (Streptococcus pyogenes): 1000 µg/mL (≈ 2600 µM)
- MIC (Torulopsis albida): > 1000 µg/mL
- MIC (Alcaligenes viscolactis): 4.1 µg/mL (≈ 10.7 µM)

Compound: Cc1c(O)c(C=O)c2nc3c(O)ccc(C(=O)O)c3nc2c1O [Example 11, 6-formyl-4,7,9-trihydroxy-8-methyl-1-phenazinecarboxylic acid]
- MIC (Pseudomonas aeruginosa): 1000 µg/mL (≈ 3180 µM)
- MIC (Mucor paraciticus): 37 µg/mL (≈ 118 µM)
- MIC (Micrococcus luteus): 111 µg/mL (≈ 353 µM)
- MIC (Saccharomyces cerevisiae): 111 µg/mL (≈ 353 µM)
- MIC (Salmonella typhimurium): 111 µg/mL (≈ 353 µM)
- MIC (Bacillus cereus): 37 µg/mL (≈ 118 µM)
- MIC (Rhizopus japonicus): 37 µg/mL (≈ 118 µM)
- MIC (Streptococcus faecalis): 111 µg/mL (≈ 353 µM)
- MIC (Staphylococcus aureus): 37 µg/mL (≈ 118 µM)
- MIC (Rhodotorula aurantiaca): 12.3 µg/mL (≈ 39.1 µM)
- MIC (Branhamella catarrhalis): 12.3 µg/mL (≈ 39.1 µM)
- MIC (Bacillus megaterium): 111 µg/mL (≈ 353 µM)
- IC50 [3]: 3.47 µg/mL (≈ 11 µM)
- MIC [1]: 111 µg/mL (≈ 353 µM)
- MIC [2]: 37 µg/mL (≈ 118 µM)
- MIC (Streptococcus pneumoniae): 111 µg/mL (≈ 353 µM)
- MIC (Streptococcus pyogenes): 111 µg/mL (≈ 353 µM)
- MIC (Torulopsis albida): 111 µg/mL (≈ 353 µM)
- MIC (Alcaligenes viscolactis): 12.3 µg/mL (≈ 39.1 µM)

Compound: Cc1c(O)c(C=O)c2nc3c(O)ccc(C(=O)NCCCN(C)C)c3nc2c1O [Example 18, N-[3-(dimethylamino)propyl]-6-formyl-4,7,9-trihydroxy-8-methyl-1-phenazinecarboxamide]
- MIC (Pseudomonas aeruginosa): > 1000 µg/mL
- MIC (Mucor paraciticus): 37 µg/mL (≈ 92.9 µM)
- MIC (Micrococcus luteus): 12.3 µg/mL (≈ 30.9 µM)
- MIC (Saccharomyces cerevisiae): 111 µg/mL (≈ 279 µM)
- % T/C (P388 leukemia cell line; 25 mg/kg/injection): 106%
- % T/C (P388 leukemia cell line; 50 mg/kg/injection): 123%
- % T/C (P388 leukemia cell line; 100 mg/kg/injection): 132%
- MIC (Salmonella typhimurium): 111 µg/mL (≈ 279 µM)
- MIC (Bacillus cereus): 12.3 µg/mL (≈ 30.9 µM)
- MIC (Rhizopus japonicus): 37 µg/mL (≈ 92.9 µM)
- MIC (Streptococcus faecalis): 37 µg/mL (≈ 92.9 µM)
- MIC (Staphylococcus aureus): 37 µg/mL (≈ 92.9 µM)
- MIC (Rhodotorula aurantiaca): 37 µg/mL (≈ 92.9 µM)
- MIC (Branhamella catarrhalis): 12.3 µg/mL (≈ 30.9 µM)
- MIC (Bacillus megaterium): 37 µg/mL (≈ 92.9 µM)
- IC50 [3]: 0.24 µg/mL (≈ 0.602 µM)
- MIC [1]: 37 µg/mL (≈ 92.9 µM)
- MIC [2]: 37 µg/mL (≈ 92.9 µM)
- MIC (Streptococcus pneumoniae): 37 µg/mL (≈ 92.9 µM)
- MIC (Streptococcus pyogenes): 37 µg/mL (≈ 92.9 µM)
- MIC (Torulopsis albida): 37 µg/mL (≈ 92.9 µM)
- MIC (Alcaligenes viscolactis): 12.3 µg/mL (≈ 30.9 µM)
